Assays:
NCI-60 panel = NCI-60 panel test, median over the panel; format: cell-based; details: 60 cancer cell lines, 5-dose study
Description: FIG. 7. NCI-60 panel test. The effect of AOH1160 on growth of the NCI-60 panel, which consists of 60 cancer cell lines representing 9 major cancer types, was tested in a 5-dose study. Shown are the Log IC50 values determined for each cell line. […] This study was performed by the National Institute of Cancer.
As observed in FIG. 7, the effect of AOH1160 on growth of the NCI-60 panel, which consists of 60 cancer cell lines representing 9 major cancer types, was tested in a 5-dose study. Shown are the Log IC50 values determined for each cell line.

[1] = tested on: HR-mediated DSB repair in DR-GFP cells; assay: DSB repair assay, DR-GFP reporter; format: cell-based; details: I-SceI-induced DSB, GFP-positive cells by flow cytometry
Description: The human NB cell lines, SK-N-DZ, SK-N-BE(2)c, SK-N-AS, and LAN-5 obtained from the American Type Culture Collection (Rockville, MD), were cultured in DMEM with 10% fetal bovine serum (FBS), 100 units/ml penicillin, and 100 μg/ml streptomycin in the presence of 5% CO2 at 37° C. Human PBMCs from a healthy donor were purchased from Sanguine BioSciences (Valencia, CA) and grown in RPMI1640 with 10% FBS, 100 units/ml penicillin, 100 μg/ml streptomycin, and 10 ng/ml IL-2 in the presence of 5% CO2 at 37° C. Human embryonic progenitor cell line 7SM0032 was acquired from Millipore (Billerica, MA) and grown in the hEPM-1 Media Kit purchased from the same company. The plasmid pCBASce expresses the rare cutting I-SceI meganuclease. The U20S-derived cell lines, DR-GFP and EJ5-GFP, each contain a stably transfected reporter gene for DSB repair mediated by HR and end joining (EJ), respectively. These cell lines were cultured in DMEM medium with 10% FBS at 37° C. in the presence of 5% CO2.
DR-GFP and EJ5-GFP cell lines were seeded at 2.5×10^4 cells/cm^2 in a 12-well plate. […] The HR and EJ-mediated DSB repair, indicated by the restoration of a functional GFP gene in the respective cell lines, were quantified by measuring the relative abundance of GFP-positive cells by flow cytometry 3 days after transfection.

[2] = tested on: replication fork extension; assay: DNA fiber assay; format: cell-based; details: CldU / IdU labeling before and after treatment
Description: FIGS. 3A-3B. […] Synchronized cells were sequentially incubated in the presence of CldU and IdU before and after AOH1160 treatment, respectively. Cells sequentially incubated with the same two nucleotide analogues but without AOH1160 were used as control. Images of FIG. 3A depict representative images of the labeled DNA strands from cells treated with or without AOH1160. FIG. 3B depicts the lengths of CldU (light gray) and IdU (dark gray) incorporated DNA segments measured from more than 30 independent DNA strands in cells treated with or without AOH1160 were averaged and graphed with standard deviations.

HCT-116 = assay: AOH1160 IC50 in additional cancer cell lines (Table 4); format: cell-based; details: Homo sapiens; HCT-116, Colon
From the text: (§1) In addition numerous analogs related to AOH1160 were screened in numerous neuroblastoma cell lines for anti-cancer activity (Table 2). AOH1160 was screened for anti-cancer activity in additional cancer cell lines besides neuroblastoma (Table 3).

A549 = assay: as above; format: cell-based; details: Homo sapiens; A549, Non-Small Cell Lung
From the text: as §1

DU-145 = assay: as above; format: cell-based; details: Homo sapiens; DU-145, Prostate
From the text: as §1

OVCAR-8 = assay: as above; format: cell-based; details: Homo sapiens; OVCAR-8, Ovarian
From the text: as §1

NCI-H23 = assay: as above; format: cell-based; details: Homo sapiens; NCI-H23, Non-Small Cell Lung
From the text: as §1

NCI-H322M = assay: as above; format: cell-based; details: Homo sapiens, Non-Small Cell Lung
From the text: as §1

HCT-15 = assay: as above; format: cell-based; details: Homo sapiens; HCT-15, Colon
From the text: as §1

HL-60 = assay: as above; format: cell-based; details: Homo sapiens; HL-60, Leukemia
From the text: as §1

[3] = tested on: SK-N-BE(2)c derived xenograft tumors; details: 30 mg/kg twice daily (BID) by oral gavages, vs vehicle
SK-N-DZ = assay: Cell cycle analysis (PI, flow cytometry); format: cell-based, human; details: NB cells (SK-N-DZ), 500 nM
Description: Cells were seeded at 1×10^5/ml in a 6-well plate. Once attached overnight, cells were treated with or without AOH1160 for 6 or 24 h. After being fixed in 60% ethanol and stained with propidium iodide (PI), cells were analyzed by flow cytometry to determine the cellular PI fluorescence intensity. The flow cytometry data were analyzed by the FlowJo program to model various cell populations.

O=C(CNC(=O)c1cccc2ccccc12)Nc1ccccc1Oc1ccccc1 [AOH1160]
IC50 (NCI-60 panel): ~320 nM | HR-mediated DSB repair [1]: blocks DNA repair in DR-GFP | replication fork extension [2]: inhibition of replication fork extension | IC50 (HCT-116): 102 nM | IC50 (A549): 173 nM | IC50 (DU-145): 200 nM | IC50 (OVCAR-8): 204 nM | IC50 (NCI-H23): 194 nM | IC50 (NCI-H322M): 157 nM | IC50 (HCT-15): 133 nM | IC50 (HL-60): 128 nM | tumor burden [3]: significantly reduced tumor burden | cell cycle effect (SK-N-DZ): causes cell cycle arrest
